# US20120046327A1, “METHOD FOR INHIBITING THE INDUCTION AND FORMATION OF OSTEOCLASTS” (OSAKA UNIVERSITY, priority 2005, published 2012)
# What was measured:
# [1] = test system: RANKL (Receptor Activator of NK-κB Ligand) in human osteoblasts; test: sRANKL expression increased by AngII in human osteoblasts; format: cell-based; settings: two-day cultivation
# Method: Purpose: Using human osteoblasts, expression of RANKL (Receptor Activator of NK-κB Ligand) which increases with angiotensin 2 (AngII) was measured. Then, inhibitory effect of olmesartan doxomil was examined.
# Methods: Human osteoblasts (Clonetics Corp., Palo Alto, Calif.) were cultured in DMEM medium under conditions of 10% FCS, 5% CO2 and 37° C. AngII (1 μM) (Sigma) was added to the culture. After two-day cultivation, sRANKL (soluble Receptor Activator of NK-κB Ligand) contained in the culture supernatant was examined by […] (Biomedica). Further, effect produced by simultaneous administration of olmesartan (1 μM) or angiotensin type II receptor antagonist PD (123319) (chemical name: (S)-1-(4-[dimethylamino]-3-methylphenyl)methyl-5-(diphenylacetyl)-4,5,6,7-tetrahydro-1H-imidazo[4,5-c]pyridine-6-carboxylate) (1 μM) (Sigma-aldrich) was also examined.
# [2] = test system: osteoclasts (TRAP positive multinucleated cells) in domestic rabbit bone marrow culture system; test: Osteoclast formation induced by active vitamin D3 in domestic rabbit bone marrow culture (TRAP staining); format: cell-based, domestic rabbit (New Zealand White Rabbit)
# Method: Purpose: Using a domestic rabbit bone marrow culture system, the number of osteoclasts which were differentiation-induced by active vitamin D3 was measured. Then, inhibitory effect of olmesartan medoxomil was examined.
# Methods: A three-day-old domestic rabbit (New Zealand White Rabbit) was sacrificed, followed by removal of the thigh bone and the tibia. After collection of the bone marrow, the leukocyte (granulocyte-monocyte) fraction was isolated and cultured under conditions of α-MEM, 10% FBS, 5% CO2, 37° C. 24-well culture plates were used for the culture. The cell count was adjusted to 5×10^4 cells/well. Active vitamin D3 (10^−8M) was added to the culture system. On day 3, 7 and 10 of the culture, cells were fixed with 4% paraformaldehyde and stained with tartarate-resistant acid phosphatase (TRAP staining) under acidic conditions (pH 5.0). The number of multinucleated cells stained with red (osteoclasts) was measured. Similar measurement was performed with addition of olmesartan at concentrations of 10^−8, 10^−7 and 10^−6M. With respect to TRAP positive cells (generally, containing 1 to 100 nuclei in one cell), they were divided into three groups depending on the degree of fusion: small cells (containing 1 to 2 nuclei), medium cells (containing 3 to 9 nuclei) and large cells (containing 10 or more nuclei).
# [3] = test system: TRAP (tartarate-resistant acid phosphatase) activity in the thigh bone; test: TRAP activity in the thigh bone of ovariectomized spontaneously hypertensive rats; format: in vivo, spontaneously hypertensive rats (SHR); settings: osmotic pump, one month after ovariectomy, ovariectomy group 76.9±9.9, non-treatment 59.6±1.0
# Method: (§1) Purpose: Using spontaneously hypertensive rats, increase in TRAP (tartarate-resistant acid phosphatase) activity in the thigh bone and decrease in the bone density after ovariectomy were measured. Then, inhibitory effects of olmesartan medoxomil against TRAP activity increase and bone density decrease were examined. TRAP is a marker enzyme for osteoclasts, and TRAP activity increases when osteoclasts are activated. When osteoclasts are activated, bone is resorbed and thus bone density is decreased.
# (§2) Methods: The ovary was removed from 8-week-old female spontaneously hypertensive rats (SHR) (Charles River). After one month observation, the thigh bone was removed, followed by measurement of TRAP activity in the bone (Walter K., et al., Method of Enzymatic Analysis, Academic Press, New York & London: 1974; 856-870) and simultaneous measurement of bone density (Venken K., et al., Bone 2005; 36: 663-670). Further, from immediately after the ovariectomy, olmesartan was administered subcutaneously at two different concentrations of 0.5 mg/kg/day and 1 mg/kg/day using an osmotic pressure pump (Alzet model 2004; Alza Corp).
# [4] = Bone density, bone length and weight in ovariectomized spontaneously hypertensive rats; format: in vivo, spontaneously hypertensive rats (SHR); settings: one month after ovariectomy, ovariectomy group 0.1438±0.003445, non-treatment 0.1685±0.002684
# Method: as §1, §2
# Although administration of olmesartan brought no changes in the length and weight of the bone, concentration dependent decrease was recognized in TRAP activity in the thigh bone (Ovariectomy+ARB0.5 group: 71.7±8.7 U/L; Ovariectomy+ARB 1 group: 66.1±3.6 U/L). […]
# [5] = Blood pressure and heart rate in ovariectomized spontaneously hypertensive rats (Table A); format: in vivo, spontaneously hypertensive rats (SHR); settings: average value; for Blood Pressure (diastolic): ovariectomy group 94.6667; for Blood Pressure (average): ovariectomy group 107; for Blood Pressure (systolic): ovariectomy group 131.667
# Method: as §2
# Although administration of olmesartan brought no changes in the length and weight of the bone, concentration dependent decrease was recognized in TRAP activity in the thigh bone (Ovariectomy+ARB0.5 group: 71.7±8.7 U/L; Ovariectomy+ARB 1 group: 66.1±3.6 U/L). Concentration dependent decrease in blood pressure was also recognized as a result of administration of olmesartan (Table A).
# [6] = AngII 1 μM plus test substance 1 μM added simultaneously, AngII group 1.045±0.129, control 0.133±0.0271
# [7] = Ovariectomy + 1 mg/kg/day (n = 3)
compound,measurement,setting,value
"Cc1cc(Cn2cnc3c2C[C@@H](C(=O)O)N(C(=O)C(c2ccccc2)c2ccccc2)C3)ccc1N(C)C [PD (123319), (S)-1-(4-[dimethylamino]-3-methylphenyl)methyl-5-(diphenylacetyl)-4,5,6,7-tetrahydro-1H-imidazo[4,5-c]pyridine-6-carboxylate]",sRANKL in culture supernatant,[1]; [6],0.747 ± 0.0855 pM
"CCCc1nc(C(C)(C)O)c(C(=O)O)n1Cc1ccc(-c2ccccc2-c2nnn[nH]2)cc1 [olmesartan, 4-(1-hydroxy-1-methylethyl)-2-propyl-1-[4-[2-(tetrazole-5-yl)phenyl]phenyl]methylimidazole-5-carboxylic acid]",growth of coexisting mesenchymal cells,"[2]; any of the groups (10^−8, 10^−7, 10^−6 M)",no remarkable change
same,"TRAP positive cells, average cell count, medium cells (containing 3 to 9 nuclei)","[2]; day 10, olmesartan 10^−6 M, active vitamin D3 10^−8M, control 68.6",50.2
same,"TRAP positive cells, average cell count, large cells (containing 10 or more nuclei)","[2]; day 10, olmesartan 10^−6 M, active vitamin D3 10^−8M, control 80.6",23.0
same,"TRAP positive cells, average cell count, small cells (containing 1 to 2 nuclei)","[2]; day 10, olmesartan 10^−6 M, active vitamin D3 10^−8M, control 101.6",192.8
same,fusion of mononuclear cells,"[2]; olmesartan 10^−6 M, day 3, compared to control group",significantly reduced
same,change in TRAP positive cell count compared to the control group,"[2]; olmesartan 10^−6 M, day 10",a significant reduction
same,change in TRAP positive cell count compared to the control group,"[2]; olmesartan 10^−7 M, day 10",a reduction in TRAP positive cell count
same,change in TRAP positive cell count compared to the control group,[2]; olmesartan 10^−8 M,no remarkable change
same,osteoclasts contributing to bone resorption (medium and large cells),"[2]; olmesartan addition groups, control group 149.2, p<0.05",73.2
same,"total number of TRAP positive, multinucleated cells","[2]; olmesartan addition groups, control group 250.8, no statistically significant difference",265.0
same,sRANKL in culture supernatant,[1]; [6],0.0442 ± 0.0328 pM
same,TRAP activity in the thigh bone,[3]; 0.5 mg/kg/day subcutaneously,71.7±8.7 U/L
same,TRAP activity in the thigh bone,[3]; 1 mg/kg/day subcutaneously,66.1±3.6 U/L
same,bone density (dual-energy X-ray absorptiometry),[4]; 0.5 mg/kg/day subcutaneously,0.1527±0.003454 g/cm^2
same,bone density (dual-energy X-ray absorptiometry),[4]; 1 mg/kg/day subcutaneously,0.1539±0.004365 g/cm^2
same,Blood Pressure (diastolic),[5]; Ovariectomy + 0.5 mg/kg/day,68.3333
same,Blood Pressure (average),[5]; Ovariectomy + 0.5 mg/kg/day,81.3333
same,Blood Pressure (systolic),[5]; Ovariectomy + 0.5 mg/kg/day,107
same,Blood Pressure (diastolic),[5]; [7],45.8
same,Blood Pressure (average),[5]; [7],56.25
same,Blood Pressure (systolic),[5]; [7],70.8
"AngII: angiotensin 2 (AngII) (Sigma), added at 1 μM to human osteoblast culture; increases RANKL expression (DRVYIHPF; Angiotensin-2; UniProt P01019 25-32, looked up)",sRANKL in culture supernatant,"[1]; AngII 1 μM alone, non-addition control 0.133±0.0271",1.045 ± 0.129 pM
